Reference: patent US10034886B2, “GLP-1 receptor modulators” (Celgene International II SÀRL, priority 2014, dated 2018)
Where two headings read alike, the source gives them in different places.

Target: T1, GLP-1R (Homo sapiens, UniProt P43220)
T1 construct: host or cells: GLP-1R CRE-bla CHO-K1 cells
Test: EC20 GLP-1(9-36) PAM cAMP assay: dose response of compound in the presence of fixed concentration of GLP-1(9-36)
Type: cell-based
Settings: GLP-1R CRE-bla CHO-K1 cells, read-out: EC20 GLP-1(9-36) PAM EC50
Method in brief: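 Positive allosteric modulation read as cAMP accumulation: compound titrations (12 points) combined with an EC20 level of GLP-1(9-36) on CHO-K1 GLP-1R CRE-bla cells, IBMX present, 30 min, 37 °C, pH 7.4 buffer. Luminescence converted to cAMP via standards; non-linear fit gave EC50 and Emax.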

[1] = compound dose response with fixed concentration of GLP-1(9-36)
[2] = dose response of compound in presence of fixed concentration of GLP-1(9-36)

T1 sequence (P43220 24-463): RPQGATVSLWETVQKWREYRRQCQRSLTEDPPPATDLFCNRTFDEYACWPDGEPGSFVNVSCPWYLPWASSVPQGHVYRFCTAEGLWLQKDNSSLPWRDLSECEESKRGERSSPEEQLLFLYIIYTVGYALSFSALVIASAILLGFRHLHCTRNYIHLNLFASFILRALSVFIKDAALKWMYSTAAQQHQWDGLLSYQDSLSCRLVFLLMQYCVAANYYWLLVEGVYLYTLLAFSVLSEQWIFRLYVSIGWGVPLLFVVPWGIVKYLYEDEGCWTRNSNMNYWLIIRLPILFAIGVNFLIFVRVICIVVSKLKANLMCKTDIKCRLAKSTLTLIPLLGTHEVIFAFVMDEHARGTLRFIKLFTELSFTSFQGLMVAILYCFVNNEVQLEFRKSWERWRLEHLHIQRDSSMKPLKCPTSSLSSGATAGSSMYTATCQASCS
T1 sequence (P01275 100-127 partner limits assumed): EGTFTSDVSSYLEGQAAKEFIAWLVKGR

CCC[C@H]1CC[C@H](C2CCN(c3cnc(-c4ccc(C[C@H](NC(=O)c5cc6cc(OC)ccc6[nH]5)C(=O)N5CC(C(=O)O)C5)cc4)nc3)CC2)CC1 [Compound 1525]
EC50 [1]: < 800 nM

CC(C)(C)c1ccc(C(=O)N[C@@H](Cc2ccc(-c3ncc(N4CCC(c5cccc(C(F)(F)F)c5)CC4)cn3)cc2)C(=O)N2CC(C(=O)O)C2)s1 [Compound 1482]
EC50 [1]: 800 to 2500 nM

CCCCCCCOc1ccc(-c2cnc(-c3ccc(C[C@H](NC(=O)c4ccc(C(C)(C)C)cc4)C(=O)NC(C(=O)O)C(O)c4ccccc4)cc3)nc2)cc1 (stereo partly drawn) [Compound 569]
EC50 [2]: < 800 nM

CCCCCCCOc1ccc(-c2cnc(-c3ccc(C[C@H](NC(=O)c4ccc(C5CC5)cc4)C(=O)N4CC(C(=O)O)C4)cc3)nc2)cc1 [Compound 1111]
EC50 [2]: 800 to 2500 nM

CCCCCCCOc1ccc(-c2cnc(-c3ccc(C[C@H](NC(=O)c4ccc(C(C)(C)C)s4)C(=O)N4CCC(CCC(=O)O)C4)cc3)nc2)cc1 (stereo partly drawn) [Compound 991]
EC50 [2]: 800 to 2500 nM

CC(C)(C)c1ccc(C(=O)N[C@@H](Cc2ccc(-c3ncc(-c4ccc(-c5ccc(OC(F)(F)F)cc5)cc4F)cn3)cc2)C(=O)N2CC(C(=O)O)C2)s1 [Compound 1188]
EC50 [2]: < 800 nM

CC[C@H]1CC[C@H](c2ccc(-c3ccc(-c4ccc(C[C@H](NC(=O)c5ccc(C(C)(C)C)s5)C(=O)O)cc4)nc3)cc2)CC1 [Compound 1333, (S)-2-(5-(tert-butyl)thiophene-2-carboxamido)-3-(4-(5-(4-((1r,4r)-4-ethylcyclohexyl)phenyl)pyridin-2-yl)phenyl)propanoic acid]
EC50 [1]: 2500 to 5000 nM

CCCCCCCOc1ccc(-c2cnc(-c3ccc(C[C@@H](NC(=O)c4ccc(C(C)(C)C)cc4)C(=O)NCCC(=O)O)cc3)nc2)cc1 [Compound 433]
EC50 [2]: 2500 to 5000 nM

CCCCCCCOc1ccc(-c2cnc(-c3ccc(C[C@H](NC(=O)c4ccc(C(C)(C)C)cc4)C(=O)N[C@@H](CC(=O)N(C)CCN)C(=O)O)cc3)nc2)cc1 [Compound 509]
EC50 [2]: 800 to 2500 nM

CC(C)(C)c1ccc(C(=O)N[C@@H](Cc2ccc(-c3ncc(-c4ccc(-c5ccc(C(F)(F)F)cc5)cc4)cn3)cc2)C(=O)O)s1 [Compound 1355, (S)-2-(5-(tert-butyl)thiophene-2-carboxamido)-3-(4-(5-(4′-(trifluoromethyl)-[1,1′-biphenyl]-4-yl)pyrimidin-2-yl)phenyl)propanoic acid]
EC50 [1]: < 800 nM

CCCCCCCOc1ccc(-c2cnc(-c3ccc(C[C@H](NC(=O)c4ccc(C(C)(C)C)cc4)C(=O)N[C@H](C(=O)O)C(C)(C)C)cc3)nc2)cc1 [Compound 546]
EC50 [2]: 800 to 2500 nM

C[C@@H](NC(=O)[C@H](Cc1ccc(-c2ncc(-c3ccc([C@H]4CC[C@@H](C(C)(C)C)CC4)cc3)cn2)cc1)NC(=O)c1ccc(C(C)(C)C)s1)C(=O)O [Compound 1144]
EC50 [2]: 800 to 2500 nM

CC[C@H]1CC[C@H](c2ccc(-c3ccc(-c4ccc(C[C@H](NC(=O)c5ccc(C(C)(C)C)s5)C(=O)N5CC(C(=O)O)C5)cc4)cn3)cc2)CC1 [Compound 1341]
EC50 [1]: < 800 nM

CC(C)(C)c1ccc(C(=O)N[C@@H](Cc2ccc(-c3ncc(-c4ccc(-c5ccccc5)cc4)cn3)cc2)C(=O)N2CC[C@H](C(=O)O)C2)s1 [Compound 769]
EC50 [2]: 5000 to 10000 nM

CCC[C@H]1CC[C@H](C2CCN(c3cnc(-c4ccc(C[C@H](NC(=O)c5ccc(C(C)(C)CC)cc5)C(=O)N5CC(C(=O)O)C5)cc4)nc3)CC2)CC1 [Compound 1518]
EC50 [1]: < 800 nM

CCSc1ccc(-c2cnc(-c3ccc(C[C@H](NC(=O)c4ccc(C(C)(C)C)s4)C(=O)N[C@H](C)C(=O)O)cc3)nc2)cc1 [Compound 998]
EC50 [2]: 2500 to 5000 nM

CCCCCCCOc1ccc(-c2cnc(-c3ccc(C[C@H](NC(=O)c4ccc(C(C)(C)C)s4)C(=O)N4CCN(c5ncccn5)CC4)cc3)nc2)cc1 [Compound 967]
EC50 [2]: 2500 to 5000 nM

CC(C)(C)c1ccc(C(=O)N[C@@H](Cc2ccc(-c3ncc(-c4ccc(OCC5CC5)cc4)cn3)cc2)C(=O)N2CC(C(=O)O)C2)s1 [Compound 781]
EC50 [2]: 2500 to 5000 nM

CCCCCCCOc1ccc(-c2cnc(-c3ccc(C[C@H](NC(=O)c4ccc(C(C)(C)C)s4)C(=O)N[C@H](CC)C(=O)O)cc3)nc2)cc1 [Compound 402]
EC50 [2]: < 800 nM

CSc1cccc(-c2cnc(-c3ccc(C[C@H](NC(=O)c4ccc(C(C)(C)C)s4)C(=O)N[C@H](C)C(=O)O)cc3)nc2)c1 [Compound 995]
EC50 [2]: 5000 to 10000 nM

CC(=O)c1ccccc1-c1ccc(-c2cnc(-c3ccc(C[C@H](NC(=O)c4ccc(C(C)(C)C)s4)C(=O)N4CC(C(=O)O)C4)cc3)nc2)c(F)c1 [Compound 1197]
EC50 [2]: 800 to 2500 nM

CCCCCCCOc1ccc(-c2cnc(-c3ccc(C[C@H](NC(=O)c4ccc(C(C)(C)C)cc4)C(=O)NC(CO)CC(=O)O)cc3)nc2)cc1 (stereo partly drawn) [Compound 550]
EC50 [2]: 800 to 2500 nM

C[C@@H](NC(=O)[C@H](Cc1ccc(-c2ncc(-c3ccc(-c4ccc(F)cc4)cc3)cn2)cc1)NC(=O)c1ccc(C(C)(C)C)s1)C(=O)O [Compound 1305]
EC50 [1]: < 800 nM

CCCCCCCOc1ccc(-c2cnc(-c3ccc(C[C@H](NC(=O)c4ccc(C(C)(C)C)s4)C(=O)N4C[C@H](O)C[C@H]4C(=O)O)cc3)nc2)cc1 [Compound 612]
EC50 [2]: < 800 nM

C[C@@H](NC(=O)[C@H](Cc1ccc(-c2ncc(/C=C/c3cc(C(F)(F)F)cc(C(F)(F)F)c3)cn2)cc1)NC(=O)c1ccc(C(C)(C)C)s1)C(=O)O [Compound 1261]
EC50 [1]: 800 to 2500 nM

CCCCCCCOc1ccc(-c2cnc(-c3ccc(C[C@H](NC(=O)c4ccc(C(C)(C)C)s4)C(=O)N4CC=CC4C(=O)O)cc3)nc2)cc1 (stereo partly drawn) [Compound 610]
EC50 [2]: < 800 nM

CCCCCCCOc1ccc(-c2cnc(-c3ccc(C[C@H](NC(=O)c4ccc(C(C)(C)C)cc4)C(=O)NC(C(=O)O)C(C)c4ccccc4)cc3)nc2)cc1 (stereo partly drawn) [Compound 574]
EC50 [2]: 800 to 2500 nM

CCCCCCCOc1ccc(-c2cnc(-c3ccc(C[C@H](NC(=O)c4ccc(C(C)(C)C)cc4)C(=O)N[C@H](CC(=O)NC)C(=O)O)cc3)nc2)cc1 [Compound 591]
EC50 [2]: < 800 nM

CCCCOc1ccc(-c2cnc(-c3ccc(C[C@H](NC(=O)c4ccc(C(C)(C)C)s4)C(=O)N[C@H](C)C(=O)O)cc3)nc2)cc1F [Compound 1044]
EC50 [2]: 2500 to 5000 nM

CCCCCCCOc1ccc(-c2cnc(-c3ccc(C[C@H](NC(=O)c4ccc(C(C)(C)C)s4)C(=O)NC(C(=O)O)C(O)c4cccnc4)cc3)nc2)cc1 (stereo partly drawn) [Compound 907]
EC50 [2]: 800 to 2500 nM

CCCCCCCOc1ccc2nc(-c3ccc(C[C@H](NC(=O)c4ccc(C(C)(C)C)cc4)C(=O)O)cc3)ccc2c1 [Compound 671, (S)-2-(4-(tert-butyl)benzamido)-3-(4-(6-(heptyloxy)quinolin-2-yl)phenyl)propanoic acid]
EC50 [2]: 2500 to 5000 nM

CCC[C@H]1CC[C@H](C2CCN(c3cnc(-c4ccc(C[C@H](NC(=O)c5ccc(C)s5)C(=O)N5CC(C(=O)O)C5)cc4)nc3)CC2)CC1 [Compound 1530]
EC50 [1]: 800 to 2500 nM

CCCCCCCOc1ccc(-c2cnc(-c3ccc(C[C@H](NC(=O)c4ccc(C(C)(C)C)cc4)C(=O)NC(Cc4ccc(Cl)cc4)C(=O)O)cc3)nc2)cc1 (stereo partly drawn) [Compound 564]
EC50 [2]: 800 to 2500 nM

CCCCCCCOc1ccc(-c2cnc(-c3ccc(C[C@H](NC(=O)c4ccc(C(C)(C)C)s4)C(=O)N4CC(C)C(C(=O)O)C4)cc3)nc2)cc1 (stereo partly drawn) [Compound 631]
EC50 [2]: 800 to 2500 nM

CCCOc1ccc(-c2cnc(-c3ccc(C[C@H](NC(=O)c4ccc(C(C)(C)C)cc4)C(=O)N[C@H](C)C(=O)O)cc3)nc2)cc1 [Compound 722]
EC50 [2]: 800 to 2500 nM

CCCCCCCOc1ccc(-c2cnc(-c3ccc(C[C@H](NC(=O)c4ccc(C(C)(C)C)cc4)C(=O)N4CCC(C(=O)O)CC4)cc3)nc2)cc1 [Compound 578]
EC50 [2]: 2500 to 5000 nM

CC(C)(C)CCOc1ccc(-c2cnc(-c3ccc(C[C@H](NC(=O)c4ccc(C(C)(C)C)s4)C(=O)NC(C(=O)O)C(O)c4ccccc4)cc3)nc2)cc1 (stereo partly drawn) [Compound 941]
EC50 [2]: 2500 to 5000 nM

CCCCCCCOc1ccc(-c2cnc(-c3ccc(C[C@H](NC(=O)c4ccc(C(C)(C)C)s4)C(=O)NC[C@H]4C[C@H](N)C4)cc3)nc2)cc1 [Compound 879]
EC50 [2]: 2500 to 5000 nM

CCCCCCCOc1ccc(-c2cnc(-c3ccc(C[C@H](NC(=O)c4ccc(C(C)(C)C)cc4)C(=O)NC(Cc4cccnc4)C(=O)O)cc3)nc2)cc1 (stereo partly drawn) [Compound 541]
EC50 [2]: 800 to 2500 nM

CCCCCCOc1ccc(-c2cnc(-c3ccc(C[C@H](NC(=O)c4ccc(C(C)(C)C)s4)C(=O)N4CC(C(=O)O)C4)cc3)nc2)cc1 [Compound 777]
EC50 [2]: 800 to 2500 nM

CCCCCCCOc1ccc(-c2cnc(-c3ccc(C[C@H](NC(=O)c4ccc(C(C)(C)C)s4)C(=O)N4CCC[C@H]4C(=O)NS(=O)(=O)CC(=O)OC)cc3)nc2)cc1 [Compound 496]
EC50 [2]: < 800 nM

CCCCCCCOc1ccc(-c2cnc(-c3ccc(C[C@H](NC(=O)[C@H]4CC[C@H](C(C)(C)C)CC4)C(=O)N[C@H](C)C(=O)O)cc3)nc2)cc1 [Compound 833]
EC50 [2]: 5000 to 10000 nM

CCCCCCCOc1ccc(-c2cnc(-c3ccc(C[C@H](NC(=O)c4ccc(C(C)(C)C)s4)C(=O)NC4(C(=O)O)CC(F)(F)C4)cc3)nc2)cc1 [Compound 876]
EC50 [2]: 800 to 2500 nM

CCCCCCCOc1ccc(-c2cnc(-c3ccc(C[C@H](NC(=O)c4ccc(C(C)(C)C)s4)C(=O)N[C@@H](C(=O)O)[C@@H](C)O)cc3)nc2)cc1 [Compound 659]
EC50 [2]: < 800 nM

C[C@@H](NC(=O)[C@H](Cc1ccc(-c2ncc(-c3ccc(-c4ccc(OC(F)(F)F)cc4)cc3)cn2)cc1)NC(=O)c1ccc(C(C)(C)C)s1)C(=O)O [Compound 1314]
EC50 [1]: < 800 nM

CC[C@H]1CC[C@H](c2ccc(-c3cnc(-c4ccc(C[C@H](NC(=O)c5ccc(N(C)C)cc5)C(=O)O)cc4)nc3)cc2)CC1 [Compound 1380]
EC50 [1]: 800 to 2500 nM

CCCCCCCOc1ccc(-c2cnc(-c3ccc(C[C@H](NC(=O)c4ccc(C(C)(C)C)cc4)C(=O)NCc4ccc(C(=O)O)o4)cc3)nc2)cc1 [Compound 572]
EC50 [2]: 800 to 2500 nM

CCCCCCCOc1ccc(-c2cnc(-c3ccc(C[C@H](NC(=O)c4ccc(C(C)(C)C)cc4)C(=O)NC(C(=O)O)c4ccc(C)cc4)cc3)nc2)cc1 (stereo partly drawn) [Compound 454]
EC50 [2]: 800 to 2500 nM
